Measurements from US5756536A, “Microbial transformation of taxol and cephalomannine” (Purdue Research Foundation, priority 1996, dated 1998).
Values after ≈ are worked out from the molar mass of the structure shown. Read-outs that look alike come from different tables or passages of the source.

Experiments:
[1] = system: HT-29; test: In vitro antitumor cytotoxicity, MTT microculture assay, HT-29; type: cell-based; settings: Homo sapiens
Experimental: (§1) The in vitro antitumor activity cytotoxicity was measured by a microculture assay using 3-(4,5-dimethylthiazol-2-yl)-2,5-diphenyl-tetrazolium bromide (MTT). This assay has an advantage over in vivo assay in that results are obtained within a week as opposed to several months. The assay was done in 96-well microtiter plates. The MTT assay is based on the transformation into a dark blue formazan product by dehydrogenase in the mitochondria of live tumor cells after exposure to drug for 6 days [M. C. Alley, D. A. Scudiero, A. Monks, M. L. Hursey, M. J. Czerwinski, D. L. Fine, B. J. Abbott, J. G. Mayo, R. H. Shoemaker and M. R. Boyd, Cancer Res., 48, 589, 1988.] Thus, only live cells are stained and can be measured at 570 nm. Antitumor cytotoxicity is reported as GI50, effect drug dose at which cell growth is retarded to 50% of control culture of tumor cells. The active compounds must have GI50 values that are less then 10^-4 M or 10 μg/ml.
(§2) Antitumor Cytotoxicity of Taxanes
(§3) Against Human Tumor Cell Lines
HT29: colon adenocarcinoma

[2] = system: A-549; test: In vitro antitumor cytotoxicity, MTT microculture assay, A-549; type: cell-based; settings: Homo sapiens, A549, 144 h
Experimental: as §1, §2, §3

[3] = system: MCF-7; test: In vitro antitumor cytotoxicity, MTT microculture assay, MCF-7; type: cell-based; settings: Homo sapiens, MCF7, 144 h
Experimental: as §1, §2, §3
MCF7: breast adenocarcinoma

[4] = system: tubulin; settings: cited from earlier work
[5] = cited from earlier work
[6] = system: tubulin; test: FAT tubulin polymerization assay; type: biochemical
[7] = system: drug-refractory ovarian cancer; settings: in vivo; cited from earlier work
[8] = 144 h, HT-29 colon adenocarcinoma, drug exposure 6 days, MTT, 570 nm, read-out: GI50
[9] = A-549 lung carcinoma, drug exposure 6 days, MTT, 570 nm, read-out: GI50
[10] = MCF-7 breast adenocarcinoma, drug exposure 6 days, MTT, 570 nm, read-out: GI50

| SMILES | GI50 [1, 8] [ng/mL] | GI50 [2, 9] [ng/mL] | GI50 [3, 10] [ng/mL] | effect on microtubule / tubulin polymer formation [4] | further results |
| --- | --- | --- | --- | --- | --- |
| C/C=C(\C)C(=O)N[C@@H](c1ccccc1)[C@@H](O)C(=O)O[C@H]1C[C@@]2(O)[C@@H](OC(=O)c3ccccc3)[C@@H]3[C@]4(OC(C)=O)CO[C@@H]4C[C@H](O)[C@@]3(C)C(=O)[C@H](OC(C)=O)C(=C1C)C2(C)C [Caphalomannine, cephalomannine] | – | – | – | – | GI50 ([1]; HT-29, 144 h): 0.2 ng/mL (≈ 0.24 nM); GI50 [2]: 0.1 ng/mL (≈ 0.12 nM); GI50 [3]: 0.8 ng/mL (≈ 0.962 nM) |
| CC(=O)O[C@H]1C(=O)[C@@]2(C)[C@H]([C@H](OC(=O)c3ccccc3)[C@]3(O)C[C@H](OC(=O)[C@H](O)[C@@H](NC(=O)c4ccc(O)cc4)c4ccccc4)C(C)=C1C3(C)C)[C@]1(OC(C)=O)CO[C@@H]1C[C@@H]2O [L-760,006] | 0.08 (≈ 0.092 nM) | 0.04 (≈ 0.046 nM) | 0.01 (≈ 0.0115 nM) | – | – |
| CC(=O)O[C@@]12CO[C@@H]1C[C@H](O)[C@@]1(C)C(=O)[C@H](OC(=O)CO)C3=C(C)[C@@H](OC(=O)[C@H](O)[C@@H](NC(=O)c4ccccc4)c4ccccc4)C[C@@](O)([C@@H](OC(=O)c4ccccc4)[C@H]21)C3(C)C [L-760,007, 10-hydroxyacetyl taxol] | 0.01 (≈ 0.0115 nM) | < 0.01 | 0.04 (≈ 0.046 nM) | – | – |
| CC[C@]1(O)C[C@H]2CN(CCc3c([nH]c4ccccc34)[C@@](C(=O)OC)(c3cc4c(cc3OC)N(C=O)[C@H]3[C@@](O)(C(=O)OC)[C@H](OC(C)=O)[C@]5(CC)C=CCN6CC[C@]43[C@@H]65)C2)C1 [vineristine] | – | – | – | prevent microtubule formation | – |
| CC(=O)O[C@H]1C(=O)[C@@]2(C)[C@H]([C@H](OC(=O)c3ccccc3)[C@]3(O)C[C@H](OC(=O)[C@H](O)[C@@H](NC(=O)c4ccccc4)c4ccccc4)C(C)=C1C3(C)C)[C@]1(OC(C)=O)CO[C@@H]1C[C@@H]2O [Taxol] | 0.0001 (≈ 0.000117 nM) | 0.0004 (≈ 0.000468 nM) | 0.002 (≈ 0.00234 nM) | promotes formation of microtubules | toxic effects in phase 1 clinical trials [5]: did not show excessive toxic effects; IC50 in the FAT tubulin polymerization assay [6]: 17 ng/mL (≈ 19.9 nM); activity against drug-refractory ovarian cancer [7]: active agent against drug-refractory ovarian cancer |
| CC(=O)O[C@H]1C(=O)[C@@]2(C)[C@H]([C@H](OC(=O)c3ccccc3)[C@]3(O)C[C@H](OC(=O)[C@H](O)[C@@H](NC(=O)/C(C)=C/CO)c4ccccc4)C(C)=C1C3(C)C)[C@]1(OC(C)=O)CO[C@@H]1C[C@@H]2O [L-745,596] | 20 (≈ 23.6 nM) | 30 (≈ 35.4 nM) | 50 (≈ 59 nM) | – | – |
| CC[C@]1(O)C[C@@H]2CN(CCc3c([nH]c4ccccc34)[C@@](C(=O)OC)(c3cc4c(cc3OC)N(C)[C@H]3[C@@](O)(C(=O)OC)[C@H](OC(C)=O)[C@]5(CC)C=CCN6CC[C@]43[C@@H]65)C2)C1 [vinblastine] | – | – | – | prevent microtubule formation | – |
